Measurements: US7109338B2, “1,2-disubstituted 1,4-dihydro-4-oxoquinoline compounds” (priority 1999, dated 2006)
Converted amounts (≈) assume the structure as drawn.

What was measured:
HRV14 (1059) = experiment: Anti-rhinovirus activity (MTT), HRV14; format: cell-based, human rhinovirus; parameters: Anti-Rhinovirus activity, HRV14: unit not given here; details: for IC50 HRV 14: HeLa (Ohio strain) cells, MTT method, 33° C.
HeLa-S3 cells = experiment: Cytotoxicity (MTT, without virus), HeLa-S3; details: HeLa-S3, no virus, incubated for 4 days
HRV1A (E28) = experiment: Anti-rhinovirus activity (MTT), HRV1A; format: cell-based, human rhinovirus; parameters: Anti-Rhinovirus activity, HRV1A: unit not given here; details: for IC50 HRV 1A: HeLa (Ohio strain) cells, MTT method, 33° C.
[1] = system: echovirus type 11 (Echo 11, Gregory); experiment: In vitro anti-picornavirus activity (MTT), Echo 11; format: cell-based; details: HeLa-S3 cells, MTT method, 37° C.
HeLa cells = experiment: Cytotoxicity (MTT, without virus), HeLa; details: HeLa, no virus, incubated for 4 days
HRV41 (56110) = experiment: Anti-rhinovirus spectrum (MTT), HRV41; format: cell-based, human rhinovirus; parameters: Anti-Rhinovirus activity, HRV41: unit not given here; details: HRV41
[2] = system: coxsackievirus type B4 (CB4,JVB); experiment: In vitro anti-picornavirus activity (MTT), CB4; format: cell-based; details: HeLa cells, MTT method, 37° C.
[3] = system: coxsackievirus type A7 (CA7); experiment: In vitro anti-picornavirus activity (MTT), CA7; format: cell-based; details: HeLa-S3 cells, MTT method, 37° C.
HRV32 (363) = experiment: Anti-rhinovirus spectrum (MTT), HRV32; format: cell-based, human rhinovirus; parameters: Anti-Rhinovirus activity, HRV32: unit not given here; details: HRV32
HRV 2 (HGP) = experiment: Anti-rhinovirus activity (MTT), HRV2; format: cell-based, human rhinovirus; parameters: Anti-Rhinovirus activity, HRV2: unit not given here; details: for IC50 HRV2: HeLa (Ohio strain) cells, MTT method, 33° C.
[4] = system: human rhinovirus type 1B (HRV 1B, B632); experiment: Anti-rhinovirus activity (MTT), HRV1B; format: cell-based; parameters: Anti-Rhinovirus activity, HRV1B: unit not given here; details: for IC50 HRV1B: HeLa (Ohio strain) cells, MTT method, 33° C.
HRV33 (1200) = experiment: Anti-rhinovirus spectrum (MTT), HRV33; format: cell-based, human rhinovirus; parameters: Anti-Rhinovirus activity, HRV33: unit not given here; details: HRV33
HRV31 (41F) = experiment: Anti-rhinovirus spectrum (MTT), HRV31; format: cell-based, human rhinovirus; parameters: Anti-Rhinovirus activity, HRV31: unit not given here; details: HRV31
[5] = system: clinical isolate (89229T); experiment: microbe, parasite or virus in culture; format: cell-based, human rhinovirus; parameters: Anti-Rhinovirus activity, Clinical isolated strain: unit not given here; details: Clinical isolated strain
HRV13 (353) = experiment: Anti-rhinovirus spectrum (MTT), HRV13; format: cell-based, human rhinovirus; parameters: Anti-Rhinovirus activity, HRV13: unit not given here; details: HRV13
HRV36 (342H) = experiment: Anti-rhinovirus spectrum (MTT), HRV36; format: cell-based, human rhinovirus; parameters: Anti-Rhinovirus activity, HRV36: unit not given here; details: HRV36
HeLa (Ohio strain)cells = experiment: Cytotoxicity (MTT, without virus), HeLa(Ohio); details: HeLa(Ohio), no virus, incubated for 4 days
HRV10 (204-CV14) = experiment: Anti-rhinovirus spectrum (MTT), HRV10; format: cell-based, human rhinovirus; parameters: Anti-Rhinovirus activity, HRV10: unit not given here; details: HRV10
[6] = system: Poliovirus type 1 (Polio 1, Sabin); experiment: microbe, parasite or virus in culture; format: cell-based
HRV39 (209) = experiment: Anti-rhinovirus spectrum (MTT), HRV39; format: cell-based, human rhinovirus; parameters: Anti-Rhinovirus activity, HRV39: unit not given here; details: HRV39
HRV29 (5582) = experiment: Anti-rhinovirus spectrum (MTT), HRV29; format: cell-based, human rhinovirus; parameters: Anti-Rhinovirus activity, HRV29: unit not given here; details: HRV29
HRV50(A2#58) = experiment: Anti-rhinovirus spectrum (MTT), HRV50; format: cell-based, human rhinovirus; parameters: Anti-Rhinovirus activity, HRV50: unit not given here; details: HRV50
HRV5 = experiment: Anti-rhinovirus spectrum (MTT), HRV5; format: cell-based, human rhinovirus; parameters: Anti-Rhinovirus activity, HRV5: unit not given here; details: HRV5
HRV3(FEB) = experiment: Anti-rhinovirus spectrum (MTT), HRV3; format: cell-based, human rhinovirus; parameters: Anti-Rhinovirus activity, HRV3: unit not given here; details: HRV3
HRV 89 (41617-Gallo) = experiment: Anti-rhinovirus activity (MTT), HRV89; format: cell-based, human rhinovirus; parameters: Anti-Rhinovirus activity, HRV89: unit not given here; details: for IC50 HRV89: HeLa (Ohio strain) cells, MTT method, 33° C.
HRV8(MRH) = experiment: Anti-rhinovirus spectrum (MTT), HRV8; format: cell-based, human rhinovirus; parameters: Anti-Rhinovirus activity, HRV8: unit not given here; details: HRV8
HRV16 (11757) = experiment: Anti-rhinovirus spectrum (MTT), HRV16; format: cell-based, human rhinovirus; parameters: Anti-Rhinovirus activity, HRV16: unit not given here; details: HRV16
HRV61 (6669-CV39) = experiment: Anti-rhinovirus spectrum (MTT), HRV61; format: cell-based, human rhinovirus; parameters: Anti-Rhinovirus activity, HRV61: unit not given here; details: HRV61
HRV21 (47) = experiment: Anti-rhinovirus spectrum (MTT), HRV21; format: cell-based, human rhinovirus; parameters: Anti-Rhinovirus activity, HRV21: unit not given here; details: HRV21

**Q.** What does the source list for `CCn1c2c(c(=O)c3cc(C(C)C)ccc31)Cc1cc(OC)ccc1-2` [Compound B10]?
**A.** Anti-Rhinovirus activity, HRV14 (HRV14 (1059)): 0.52; IC50 HRV 14 (HRV14 (1059)): 0.52 µg/mL (≈ 1.56 µM); Cytotoxicity CC50 HeLa-S3 (HeLa-S3 cells): >2.5 µg/mL; Anti-Rhinovirus activity, HRV1A (HRV1A (E28)): 1.9; IC50 HRV 1A (HRV1A (E28)): 1.9 µg/mL (≈ 5.7 µM); IC50 Echo 11 [1]: 0.14 µg/mL (≈ 0.42 µM); Cytotoxicity CC50 HeLa (HeLa cells): >2.5 µg/mL; Anti-Rhinovirus activity, HRV41 (HRV41 (56110)): 0.007; IC50 CB4 [2]: 0.57 µg/mL (≈ 1.71 µM); IC50 CA7 [3]: 1.4 µg/mL (≈ 4.2 µM); Anti-Rhinovirus activity, HRV32 (HRV32 (363)): 0.36; Anti-Rhinovirus activity, HRV2 (HRV 2 (HGP)): 0.16; IC50 HRV2 (HRV 2 (HGP)): 0.16 µg/mL (≈ 0.48 µM); Anti-Rhinovirus activity, HRV1B [4]: 0.25; IC50 HRV1B [4]: 0.25 µg/mL (≈ 0.75 µM); Anti-Rhinovirus activity, HRV33 (HRV33 (1200)): 0.11; Anti-Rhinovirus activity, HRV31 (HRV31 (41F)): 0.15; Anti-Rhinovirus activity, Clinical isolated strain [5]: 0.75; Anti-Rhinovirus activity, HRV13 (HRV13 (353)): 0.12; Anti-Rhinovirus activity, HRV36 (HRV36 (342H)): 0.17; Cytotoxicity CC50 HeLa(Ohio) (HeLa (Ohio strain)cells): >2.5 µg/mL; Anti-Rhinovirus activity, HRV10 (HRV10 (204-CV14)): 0.41; IC50 Polio 1 [6]: 0.17 µg/mL (≈ 0.51 µM); Anti-Rhinovirus activity, HRV39 (HRV39 (209)): 0.39; Anti-Rhinovirus activity, HRV29 (HRV29 (5582)): 0.44; Anti-Rhinovirus activity, HRV50 (HRV50(A2#58)): 0.10; Anti-Rhinovirus activity, HRV5 (HRV5): 0.24; Anti-Rhinovirus activity, HRV3 (HRV3(FEB)): 0.48; Anti-Rhinovirus activity, HRV89 (HRV 89 (41617-Gallo)): 0.33; IC50 HRV89 (HRV 89 (41617-Gallo)): 0.33 µg/mL (≈ 0.99 µM); Anti-Rhinovirus activity, HRV8 (HRV8(MRH)): 0.20; Anti-Rhinovirus activity, HRV16 (HRV16 (11757)): 0.57; Anti-Rhinovirus activity, HRV61 (HRV61 (6669-CV39)): 0.24; Anti-Rhinovirus activity, HRV21 (HRV21 (47)): 0.16

**Q.** How did the “Anti-Rhinovirus activity, HRV14” value (HRV14 (1059)) turn out when `CCn1c2c(c(=O)c3cc(CC(C)C)ccc31)Cc1cc(OC)ccc1-2` [Compound B12] was run?
**A.** The value was 0.43.

**Q.** What about the “IC50 HRV 14” value (HRV14 (1059)) of the same molecule?
**A.** The value was 0.43 µg/mL (≈ 1.24 µM).

**Q.** And the “Cytotoxicity CC50 HeLa-S3” value (HeLa-S3 cells)?
**A.** The value was over 2.5 µg/mL.

**Q.** What about the “Anti-Rhinovirus activity, HRV1A” value (HRV1A (E28)) of the same molecule?
**A.** The value was over 2.5.

**Q.** What about the “IC50 HRV 1A” value (HRV1A (E28)) of the same molecule?
**A.** The value was over 2.5 µg/mL.

**Q.** And the “IC50 Echo 11” value [1]?
**A.** The value was 0.19 µg/mL (≈ 0.547 µM).

**Q.** And the “Cytotoxicity CC50 HeLa” value (HeLa cells)?
**A.** The value was over 2.5 µg/mL.

**Q.** And the “Anti-Rhinovirus activity, HRV41” value (HRV41 (56110))?
**A.** The value was 0.11.

**Q.** And the “IC50 CB4” value [2]?
**A.** Its value is 0.63 µg/mL (≈ 1.81 µM).

**Q.** And the “IC50 CA7” value [3]?
**A.** Its value is 2.0 µg/mL (≈ 5.76 µM).

**Q.** And the “Anti-Rhinovirus activity, HRV32” value (HRV32 (363))?
**A.** The value was 0.33.

**Q.** And the “Anti-Rhinovirus activity, HRV2” value (HRV 2 (HGP))?
**A.** The value was 0.31.

**Q.** And the “IC50 HRV2” value (HRV 2 (HGP))?
**A.** Its value is 0.31 µg/mL (≈ 0.892 µM).

**Q.** And the “Anti-Rhinovirus activity, HRV1B” value [4]?
**A.** Its value is 0.25.

**Q.** What about the “IC50 HRV1B” value [4] of the same molecule?
**A.** The value was 0.25 µg/mL (≈ 0.72 µM).

**Q.** What about the “Anti-Rhinovirus activity, HRV33” value (HRV33 (1200)) of the same molecule?
**A.** The value was 0.12.

**Q.** What about the “Anti-Rhinovirus activity, HRV31” value (HRV31 (41F)) of the same molecule?
**A.** The value was 0.11.

**Q.** And the “Anti-Rhinovirus activity, Clinical isolated strain” value [5]?
**A.** Its value is 0.46.

**Q.** What about the “Anti-Rhinovirus activity, HRV13” value (HRV13 (353)) of the same molecule?
**A.** Its value is 0.091.

**Q.** What about the “Anti-Rhinovirus activity, HRV36” value (HRV36 (342H)) of the same molecule?
**A.** Its value is 0.21.

**Q.** And the “Cytotoxicity CC50 HeLa(Ohio)” value (HeLa (Ohio strain)cells)?
**A.** Its value is over 2.5 µg/mL.

**Q.** And the “Anti-Rhinovirus activity, HRV10” value (HRV10 (204-CV14))?
**A.** Its value is 0.43.

**Q.** And the “IC50 Polio 1” value [6]?
**A.** The value was 0.39 µg/mL (≈ 1.12 µM).

**Q.** And the “Anti-Rhinovirus activity, HRV39” value (HRV39 (209))?
**A.** Its value is 0.38.

**Q.** What about the “Anti-Rhinovirus activity, HRV29” value (HRV29 (5582)) of the same molecule?
**A.** Its value is 0.44.

**Q.** And the “Anti-Rhinovirus activity, HRV50” value (HRV50(A2#58))?
**A.** The value was 0.12.

**Q.** And the “Anti-Rhinovirus activity, HRV5” value (HRV5)?
**A.** The value was 0.29.

**Q.** And the “Anti-Rhinovirus activity, HRV3” value (HRV3(FEB))?
**A.** Its value is 0.52.

**Q.** And the “Anti-Rhinovirus activity, HRV89” value (HRV 89 (41617-Gallo))?
**A.** The value was 0.31.

**Q.** And the “IC50 HRV89” value (HRV 89 (41617-Gallo))?
**A.** Its value is 0.31 µg/mL (≈ 0.892 µM).

**Q.** And the “Anti-Rhinovirus activity, HRV8” value (HRV8(MRH))?
**A.** Its value is 0.32.

**Q.** What about the “Anti-Rhinovirus activity, HRV16” value (HRV16 (11757)) of the same molecule?
**A.** Its value is 1.4.

**Q.** And the “Anti-Rhinovirus activity, HRV61” value (HRV61 (6669-CV39))?
**A.** Its value is 0.31.

**Q.** What about the “Anti-Rhinovirus activity, HRV21” value (HRV21 (47)) of the same molecule?
**A.** Its value is 0.17.
